Assay results: ChEMBL document CHEMBL4196027, “Structure-based discovery of cytotoxic dimeric tetrahydroxanthones as potential topoisomerase I inhibitors from a marine-derived fungus” (Eur J Med Chem, 2018)

Legend:
MGC-803 [1] = assay: Cell cycle arrest in human MGC803 cells assessed as accumulation at G0/G1 phase at 6.25 uM after 24 hrs by propidium iodide staining based flow cytometry (reference value: 59.68%); assay type: functional
MGC-803 [2] = assay: Induction of apoptosis in human MGC803 cells assessed as necrotic cells at 12.5 uM after 24 hrs by Annexin V-FITC/propidium iodide staining based flow cytometry (reference value: 0.92%); assay type: functional
MGC-803 [3] = assay: Induction of apoptosis in human MGC803 cells assessed as early apoptotic cells at 12.5 uM after 24 hrs by Annexin V-FITC/propidium iodide staining based flow cytometry (reference value: 0.56%); assay type: functional
MGC-803 [4] = assay: Induction of apoptosis in human MGC803 cells assessed as late apoptotic cells at 25 uM after 24 hrs by Annexin V-FITC/propidium iodide staining based flow cytometry (reference value: 0.12%); assay type: functional
MGC-803 [5] = assay: Induction of necrosis in human MGC803 cells at 25 uM after 48 hrs by Hoechst 33342/propidium iodide staining based flow cytometry (reference value: 3.73%); assay type: functional
MGC-803 [6] = assay: Cell cycle arrest in human MGC803 cells assessed as accumulation at S phase at 25 uM after 24 hrs by propidium iodide staining based flow cytometry (reference value: 31.17%); assay type: functional
HL-60 = assay: Cytotoxicity against human HL60 cells assessed as reduction in cell proliferation after 48 hrs by MTT assay; assay type: functional, cell-based; conditions: Homo sapiens, HL-60, 48 h
MGC-803 [7] = assay: Induction of apoptosis in human MGC803 cells assessed as early apoptotic cells at 25 uM after 24 hrs by Annexin V-FITC/propidium iodide staining based flow cytometry (reference value: 0.56%); assay type: functional
MGC-803 [8] = assay: Cell cycle arrest in human MGC803 cells assessed as accumulation at G0/G1 phase at 12.5 uM after 24 hrs by propidium iodide staining based flow cytometry (reference value: 59.68%); assay type: functional
[9] = Cytotoxicity against human HO8910 cells assessed as reduction in cell proliferation after 48 hrs by MTT assay; assay type: functional, cell-based; conditions: Homo sapiens, HO-8910, 48 h
NCI-H1975 = assay: Cytotoxicity against human NCI-H1975 cells assessed as reduction in cell proliferation after 48 hrs by MTT assay; assay type: functional, cell-based; conditions: Homo sapiens, NCI-H1975, 48 h
MGC-803 [10] = assay: Induction of apoptosis in human MGC803 cells assessed as necrotic cells at 25 uM after 24 hrs by Annexin V-FITC/propidium iodide staining based flow cytometry (reference value: 0.92%); assay type: functional
K562 = assay: Cytotoxicity against human K562 cells assessed as reduction in cell proliferation after 48 hrs by MTT assay; assay type: functional, cell-based; conditions: Homo sapiens, K562, 48 h
HCT-116 = assay: Cytotoxicity against human HCT116 cells assessed as reduction in cell proliferation after 48 hrs by MTT assay; assay type: functional, cell-based; conditions: Homo sapiens, HCT-116, 48 h
MGC-803 [11] = assay: Cell cycle arrest in human MGC803 cells assessed as accumulation at G2/M phase at 12.5 uM after 24 hrs by propidium iodide staining based flow cytometry (reference value: 9.15%); assay type: functional
MGC-803 [12] = assay: Induction of necrosis in human MGC803 cells at 12.5 uM after 48 hrs by Hoechst 33342/propidium iodide staining based flow cytometry (reference value: 3.73%); assay type: functional
MGC-803 [13] = assay: Induction of necrosis in human MGC803 cells at 6.25 uM after 48 hrs by Hoechst 33342/propidium iodide staining based flow cytometry (reference value: 3.73%); assay type: functional
MGC-803 [14] = assay: Induction of apoptosis in human MGC803 cells assessed as late apoptotic cells at 12.5 uM after 24 hrs by Annexin V-FITC/propidium iodide staining based flow cytometry (reference value: 0.12%); assay type: functional
MGC-803 [15] = assay: Cell cycle arrest in human MGC803 cells assessed as accumulation at S phase at 6.25 uM after 24 hrs by propidium iodide staining based flow cytometry (reference value: 31.17%); assay type: functional
MGC-803 [16] = assay: Induction of apoptosis in human MGC803 cells assessed as late apoptotic cells at 6.25 uM after 24 hrs by Annexin V-FITC/propidium iodide staining based flow cytometry (reference value: 0.12%); assay type: functional
A549 = assay: Cytotoxicity against human A549 cells assessed as reduction in cell proliferation after 48 hrs by MTT assay; assay type: functional, cell-based; conditions: Homo sapiens, A549, 48 h
MGC-803 [17] = assay: Cell cycle arrest in human MGC803 cells assessed as accumulation at G0/G1 phase at 25 uM after 24 hrs by propidium iodide staining based flow cytometry (reference value: 59.68%); assay type: functional
HEK293 = assay: Cytotoxicity against HEK293 cells assessed as reduction in cell proliferation after 48 hrs by MTT assay; assay type: cell-based; conditions: Homo sapiens, HEK293, 48 h
MGC-803 [18] = assay: Cytotoxicity against human MGC803 cells assessed as reduction in cell proliferation after 48 hrs by MTT assay; assay type: functional, cell-based; conditions: Homo sapiens, MGC-803, 48 h
MGC-803 [19] = assay: Induction of apoptosis in human MGC803 cells assessed as necrotic cells at 6.25 uM after 24 hrs by Annexin V-FITC/propidium iodide staining based flow cytometry (reference value: 0.92%); assay type: functional
MGC-803 [20] = assay: Cell cycle arrest in human MGC803 cells assessed as accumulation at S phase at 12.5 uM after 24 hrs by propidium iodide staining based flow cytometry (reference value: 31.17%); assay type: functional
MGC-803 [21] = assay: Cell cycle arrest in human MGC803 cells assessed as accumulation at G2/M phase at 6.25 uM after 24 hrs by propidium iodide staining based flow cytometry (reference value: 9.15%); assay type: functional
MGC-803 [22] = assay: Induction of apoptosis in human MGC803 cells assessed as early apoptotic cells at 6.25 uM after 24 hrs by Annexin V-FITC/propidium iodide staining based flow cytometry (reference value: 0.56%); assay type: functional
MGC-803 [23] = assay: Cell cycle arrest in human MGC803 cells assessed as accumulation at G2/M phase at 25 uM after 24 hrs by propidium iodide staining based flow cytometry (reference value: 9.15%); assay type: functional

Q: Which Activity (MGC-803 [1]) does the source give for COC(=O)[C@@]12Oc3cc(C)c(-c4ccc5c(c4O)C(=O)C4=C(O)C[C@H](C)[C@@H](O)[C@]4(C(=O)OC)O5)c(O)c3C(=O)C1=C(O)CC[C@H]2O (stereo in doubt; 1) here?
A: 33.65%

Q: What about the Activity (MGC-803 [2]) of the same molecule?
A: 1.46%

Q: And the Activity (MGC-803 [3])?
A: 0.42%

Q: What about the Activity (MGC-803 [4]) of the same molecule?
A: 0.59%

Q: What about the Activity (MGC-803 [5]) of the same molecule?
A: 31.33%

Q: What about the Activity (MGC-803 [6]) of the same molecule?
A: 22.9%

Q: What about the IC50 (HL-60) of the same molecule?
A: 13.4 µM

Q: And the Activity (MGC-803 [7])?
A: 0.26%

Q: And the Activity (MGC-803 [8])?
A: 25.7%

Q: What about the IC50 [9] of the same molecule?
A: 9.6 µM

Q: And the IC50 (NCI-H1975)?
A: 9.8 µM

Q: What about the Activity (MGC-803 [10]) of the same molecule?
A: 4.06%

Q: What about the IC50 (K562) of the same molecule?
A: 20.9 µM

Q: What about the IC50 (HCT-116) of the same molecule?
A: 16.2 µM

Q: And the Activity (MGC-803 [11])?
A: 37.32%

Q: What about the Activity (MGC-803 [12]) of the same molecule?
A: 19.29%

Q: And the Activity (MGC-803 [13])?
A: 6.97%

Q: And the Activity (MGC-803 [14])?
A: 0.56%

Q: And the Activity (MGC-803 [15])?
A: 31.02%

Q: What about the Activity (MGC-803 [16]) of the same molecule?
A: 0.17%

Q: And the IC50 (A549)?
A: 17.8 µM

Q: What about the Activity (MGC-803 [17]) of the same molecule?
A: 29.67%

Q: What about the IC50 (HEK293) of the same molecule?
A: > 50 µM

Q: And the IC50 (MGC-803 [18])?
A: 4.6 µM

Q: What about the Activity (MGC-803 [19]) of the same molecule?
A: 1.88%

Q: What about the Activity (MGC-803 [20]) of the same molecule?
A: 36.98%

Q: What about the Activity (MGC-803 [21]) of the same molecule?
A: 35.33%

Q: What about the Activity (MGC-803 [22]) of the same molecule?
A: 0.26%

Q: And the Activity (MGC-803 [23])?
A: 47.43%
